Assay results as given in patent US6342602B1, “Aryl or heteroaryl amides of tetrahydronaphthalene, chroman, thichroman and 1,2,3,4-tetrahydroquinolinecarboxlic acids, having an electron withdrawing substituent in the aromatic or heteroaromatic moiety, having retinoid-like biological activity” (Allergan Sales, Inc., priority 1995, dated 2002).

Columns and labels:
Assay in all cases: Ligand binding assay
Details in all cases: receptor expressed in Baculovirus; competition with [3H] retinoic acid; Cheng-Prusoff from IC50
RARβ = target: T1, RARβ (Homo sapiens, UniProt P10826)
T1 construct: made in house; used as extract protein
T1 sequence (P10826 1-455): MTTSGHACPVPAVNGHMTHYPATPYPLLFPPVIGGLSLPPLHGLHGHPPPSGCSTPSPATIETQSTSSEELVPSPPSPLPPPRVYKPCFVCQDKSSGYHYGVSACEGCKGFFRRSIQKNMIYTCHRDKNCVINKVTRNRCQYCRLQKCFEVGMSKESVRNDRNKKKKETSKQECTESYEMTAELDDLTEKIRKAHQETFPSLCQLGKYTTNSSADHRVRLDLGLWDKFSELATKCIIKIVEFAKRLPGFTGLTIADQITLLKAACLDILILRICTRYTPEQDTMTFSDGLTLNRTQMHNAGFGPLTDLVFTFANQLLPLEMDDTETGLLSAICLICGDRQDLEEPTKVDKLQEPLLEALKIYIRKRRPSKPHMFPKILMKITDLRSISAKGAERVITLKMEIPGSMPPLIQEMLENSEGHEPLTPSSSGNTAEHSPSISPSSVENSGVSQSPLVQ
Protocol: (§1) A holoreceptor transactivation assay and a ligand binding assay which measure the ability of the compounds of the invention to bind to the several retinoid receptor subtypes, respectively, are described in published PCT Application No. WO WO93/11755 (particularly on pages 30-33 and 37-41) published on Jun. 24, 1993, the specification of which is also incorporated herein by reference. A description of the ligand binding assay is also provided below.
(§2) All binding assays were performed in a similar fashion. All six receptor types were derived from the expressed receptor type (RAR α, β, τ and RXR α, β, τ) expressed in Baculovirus. Stock solutions of all compounds were prepared as 10 mM ethanol solutions and serial dilutions carried out into 1:1 DMSO; ethanol. Assay buffers consisted of the following for all six receptor assays: 8% glycerol, 120 mM KCl, 8 mM Tris, 5 mM CHAPS 4 mM DTT and 0.24 mM PMSF, pH-7.4@room temperature.
(§3) All receptor biding assays were performed in the same manner. The final assay volume was 250 μl and contained from […] of extract protein depending on receptor being assayed along with 5 nM of [^3H) alltrans retinoic acid or 10 nM [^3H) 9-cis retinoic acid and varying concentrations of competing ligand at concentrations that ranged from 0-10^−5 M. The assays were formatted for a 96 well minitube system. Incubations were carried out at 4° C. until equilibrium was achieved. Non-specific binding was defined as that binding remaining in the presence of 1000 nM of the appropriate unlabeled retinoic acid isomer. At the end of the incubation period, 50 μl of 6.25% hydroxyapitite was added in the appropriate wash buffer. The wash buffer consisted of 100 mM KCl, 10 mM Tris and either 5 mM CHAPS (RXR α, β, τ) or 0.5% Triton X-100 (RAR α, β, τ). The mixture was vortexed and incubated for 10 minutes at 4° C., centrifuged and the supernatant removed. The hydroxyapitite was washed three more times with the appropriate wash buffer. The receptor-ligand complex was adsorbed by the hydroxyapitite. The amount of receptor-ligand complex was determined by liquid scintillation counting of hydroxyapitite pellet.
(§4) After correcting for non-specific binding, IC50 values were determined. […] The IC50 value was determined graphically from a loglogit plot of the data. The Kd values were determined by application of the ChengPrussof equation to the IC50 values, the labeled ligand concentration and the Kd of the labeled ligand.
(§5) The results of ligand binding assay are expressed in Kd numbers. (See Cheng et al. Biochemical Pharmacology Vol. 22 pp 3099-3108, expressly incorporated herein by reference.)

RXRΓ = target: T2, RXRΓ (Homo sapiens, UniProt P48443)
T2 construct: made in house; used as extract protein
T2 sequence (P48443 1-463): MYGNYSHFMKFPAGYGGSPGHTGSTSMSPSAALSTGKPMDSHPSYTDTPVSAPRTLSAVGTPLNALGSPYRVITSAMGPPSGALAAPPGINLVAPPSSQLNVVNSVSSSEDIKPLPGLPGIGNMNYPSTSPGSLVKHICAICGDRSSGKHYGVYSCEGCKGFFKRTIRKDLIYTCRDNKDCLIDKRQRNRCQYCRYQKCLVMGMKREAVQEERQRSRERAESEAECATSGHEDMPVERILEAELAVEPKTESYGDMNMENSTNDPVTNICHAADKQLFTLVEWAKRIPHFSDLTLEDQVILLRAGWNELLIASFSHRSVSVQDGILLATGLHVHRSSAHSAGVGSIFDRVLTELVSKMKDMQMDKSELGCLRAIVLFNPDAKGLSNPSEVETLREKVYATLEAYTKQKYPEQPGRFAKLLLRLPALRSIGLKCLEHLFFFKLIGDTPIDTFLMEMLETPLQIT
Protocol: as §1, §2, §3, §4, §5

RXRα = target: T3, RXRα (Homo sapiens, UniProt P19793)
T3 construct: made in house; used as extract protein
T3 sequence (P19793 1-462): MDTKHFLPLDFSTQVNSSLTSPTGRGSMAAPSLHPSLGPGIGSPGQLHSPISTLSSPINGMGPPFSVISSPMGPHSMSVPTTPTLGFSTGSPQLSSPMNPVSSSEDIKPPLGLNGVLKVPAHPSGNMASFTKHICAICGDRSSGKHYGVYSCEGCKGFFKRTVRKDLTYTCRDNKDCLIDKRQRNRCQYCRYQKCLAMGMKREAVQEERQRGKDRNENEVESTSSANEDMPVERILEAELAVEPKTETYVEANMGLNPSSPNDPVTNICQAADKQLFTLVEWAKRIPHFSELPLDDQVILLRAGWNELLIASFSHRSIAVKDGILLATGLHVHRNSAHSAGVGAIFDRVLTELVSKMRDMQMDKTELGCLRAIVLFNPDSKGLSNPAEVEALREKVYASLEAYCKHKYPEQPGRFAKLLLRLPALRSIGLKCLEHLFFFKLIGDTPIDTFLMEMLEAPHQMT
Protocol: as §1, §2, §3, §4, §5

RXRβ = target: T4, RXRβ (Homo sapiens, UniProt P28702)
T4 construct: made in house; used as extract protein
T4 sequence (P28702 1-533): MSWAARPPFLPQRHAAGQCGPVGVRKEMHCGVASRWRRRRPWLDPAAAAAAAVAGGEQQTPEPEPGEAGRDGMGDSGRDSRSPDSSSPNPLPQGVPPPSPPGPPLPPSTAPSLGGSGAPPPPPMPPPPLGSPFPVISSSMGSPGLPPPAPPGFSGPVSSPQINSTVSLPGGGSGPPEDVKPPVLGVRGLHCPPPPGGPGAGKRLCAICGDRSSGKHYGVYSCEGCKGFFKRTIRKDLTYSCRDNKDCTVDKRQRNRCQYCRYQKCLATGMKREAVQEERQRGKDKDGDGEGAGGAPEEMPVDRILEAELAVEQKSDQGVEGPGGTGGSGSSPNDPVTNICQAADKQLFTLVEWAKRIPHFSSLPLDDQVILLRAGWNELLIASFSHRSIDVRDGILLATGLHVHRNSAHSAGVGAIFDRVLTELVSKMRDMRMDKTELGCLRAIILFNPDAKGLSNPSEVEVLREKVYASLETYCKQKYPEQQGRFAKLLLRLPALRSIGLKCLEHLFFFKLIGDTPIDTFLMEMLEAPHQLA
Protocol: as §1, §2, §3, §4, §5

Row | SMILES | Kd (RARβ) [nM] | Kd (RXRΓ) [nM] | Kd (RXRα) [nM] | Kd (RXRβ) [nM]
1 | CC1(C)CCC(C)(C)c2cc(C(=O)Nc3ccc(C(=O)O)c(F)c3)ccc21 [Compound 2] | 480 | > 1000 | > 1000 | > 1000
2 | CC1(C)CCC(C)(C)c2cc(C(=O)Nc3ccc(C(=O)O)cc3)c(F)cc21 [Compound 4] | 23 | > 1000 | > 1000 | > 1000
3 | CC1(C)CCC(C)(C)c2c(Br)cc(C(=O)Nc3ccc(C(=O)O)c(F)c3)cc21 [Compound 6] | > 1000 | > 1000 | > 1000 | > 1000
4 | CC1(C)CCC(C)(C)c2cc(C(=O)Nc3ccc(C(=O)O)c(F)c3)c(O)cc21 [Compound 8] | > 1000 | > 1000 | > 1000 | > 1000
5 | CC1(C)CC(C)(C)c2cc(C(=O)Nc3ccc(C(=O)O)c(F)c3)cc(Br)c2O1 [Compound 12] | > 1000 | > 1000 | > 1000 | > 1000
6 | CC1(C)CC(C)(C)c2cc(C(=O)Nc3ccc(C(=O)O)c(F)c3)cc(C(F)(F)F)c2O1 [Compound 14] | > 1000 | > 1000 | > 1000 | > 1000
7 | CC1(C)CC(C)(C)c2cc(C(=O)Nc3ccc(C(=O)O)c(F)c3)cc(N=[N+]=[N-])c2O1 [Compound 16, 2-Fluoro-4-[(21′,2′,4′,4′-tetramethyl-8′-azidochroman-6′-yl)carbamoyl]benzoic Acid] | > 1000 | > 1000 | > 1000 | > 1000
8 | CC1(C)CC(C)(C)c2cc(C(=O)Nc3cc(F)c(C(=O)O)c(F)c3)cc(C(F)(F)F)c2O1 [Compound 18, 2,6-Difluoro-4-[(2′,2′,4′,4′-tetramethyl-8′-trifluoromethylchroman-6′-yl)carbamoyl]benzoic Acid] | > 1000 | > 1000 | > 1000 | > 1000
9 | CC1(C)CC(C)(C)c2cc(C(=O)Nc3ccc(C(=O)O)c(F)c3)cc(I)c2O1 [Compound 20] | > 1000 | > 1000 | > 1000 | > 1000
10 | Cc1cc(C(=O)Nc2ccc(C(=O)O)c(F)c2)cc2c1OC(C)(C)CC2(C)C [Compound 22] | > 1000 | > 1000 | > 1000 | > 1000
11 | CC1(C)CCC(C)(C)c2cc(C(=S)Nc3ccc(C(=O)O)cc3)ccc21 [Compound 26] | > 1000 | > 1000 | > 1000 | > 1000
12 | CC1(C)CC(C)(C)c2cc(C(=O)Nc3ccc(C(=O)O)c(F)c3)ccc2O1 [Compound 32] | > 1000 | > 1000 | > 1000 | > 1000
13 | CC1(C)CCC(C)(C)c2c1cc(C(=O)Nc1cc(F)c(C(=O)O)c(F)c1)c(O)c2Br [Compound 36] | > 1000 | > 1000 | > 1000 | > 1000
14 | CC1(C)CCC(C)(C)c2cc(C(=O)Nc3cc(F)c(C(=O)O)c(F)c3)ccc21 [Compound 38] | > 1000 | > 1000 | > 1000 | > 1000
